{
  "source": "paper PMC7685627",
  "about": "“In vitro investigation of metabolic fate of α-mangostin and gartanin via skin permeation by LC-MS/MS and in silico evaluation of the metabolites by ADMET predictor™” (BMC Complementary Medicine and Therapies, 2020)",
  "key": {"HEKn cells [1]": {"tested_on": "HEKn cells", "assay": "Metabolites during permeation across HEKn cell monolayer by LC-MS/MS", "format": "in vitro ADME, human", "conditions": "positive scan mode", "experimental": "Human epidermal keratinocyte (neonatal) (HEKn) (InvitrogenTM, Cat# C-001-5C Lot#1654391, Oregon, USA) cells were grown in T-25 flask at 37 °C in an atmosphere of 5% CO2. The adherent keratinocytes were cultured in low calcium (0.09 mM), serum-free, Epilife® medium, and supplement with Human Keratinocyte Growth Supplement (HKGS) at 1% v/v concentration. When a 500 ml of Epilife® medium was supplemented with HKGS the final concentration of the components in the supplement medium were: bovine pituitary extract (BPE) 0.2% v/v, bovine insulin 5 μg/ml, hydrocortisone 0.18 μg/ml, bovine transferrin 5 μg/ml and human epidermal growth factor 0.2 ng/ml. The medium was replaced regularly three times a week until the flask reaches 90% confluence (Fig. 2). The cells were moved from the flasks by incubating the monolayers with 0.5% trypsin for 2–3 min at 37 °C. The cells were collected into centrifuge tubes, and then centrifuged at 1000 rpm for 4 min and the pellets were resuspended in Epilife® medium. Cells used for this study were in third and fourth passage in late sub confluency.\nHEKns cells were seeded at a density of 1 × 10^5 cells/cm^2 on permeable supports (Transwell® Costar, 0.4 μm pore size) as shown in Fig. 3. […] The integrity of the HEKns cell monolayer in the transwell plates was determined by measuring Trans Epithelial Electrical Resistance (TEER). […]"}, "CYP1A2": {"tested_on": "CYP1A2", "set-up": "method as in Foti et al. [20]", "conditions": "ref Foti et al. [20]; cited from earlier work"}, "HEKn cells [2]": {"tested_on": "HEKn cells", "assay": "Papp, A-B from the previous permeation experiments", "format": "in vitro ADME, human", "conditions": "experimental Papp, A-B versus S+MDCK predicted Papp; previous experiments ref 16"}, "CYP2C family of enzymes": {"tested_on": "CYP2C family of enzymes", "set-up": "method as in Foti et al. [20]", "conditions": "ref Foti et al. [20]; cited from earlier work"}, "HEKn cells [3]": {"tested_on": "HEKn cells", "set-up": "method as in PMID 32615127", "conditions": "gartanin 9 μM, compound alone; previous experiments ref 16; cited from earlier work"}},
  "note": "“Also recorded” adds a separate entry of the source.",
  "data": [
    {"smiles": "COc1c(O)cc2oc3cc(O)c(CC=C(C)C)c(O)c3c(=O)c2c1CC=C(C)C", "note": "[α-mangostin]", "values": [
      {"measurement": "Metabolism identified by LC-MS/MS", "setting": "HEKn cells [1]", "result": "might be metabolized via tri-oxidation process"},
      {"measurement": "Metabolizing CYP isoform", "setting": "CYP1A2", "result": "metabolized primarily by CYP1A2"},
      {"measurement": "Papp, A-B from experiments lower than predicted Papp", "setting": "HEKn cells [2]", "result": 3, "unit": "fold"},
      {"measurement": "Inhibition of CYP", "setting": "CYP2C family of enzymes", "result": "potent inhibited"}
    ]},
    {"smiles": "CC(C)=CCc1c(O)c(CC=C(C)C)c2oc3c(O)ccc(O)c3c(=O)c2c1O", "note": "[Gartanin]", "values": [
      {"measurement": "Metabolism identified by LC-MS/MS", "setting": "HEKn cells [1]", "result": "might be conjugated to sulfated derivatives; also recorded: not found to be metabolized in phase I metabolism"},
      {"measurement": "Papp, A-B", "setting": "HEKn cells [3]", "result": "could not be detected"}
    ]}
  ]
}
